Marks after values point to notes of the source that are not given here.
Columns and labels:
[1] = tested on: rod photoreceptors of isolated mouse retinas; assay: ex vivo ERG of isolated mouse retinas (rod light responses); type: cell-based, mouse (C57BL/6J); settings: 250 μM compound
From the text: We determined the impact of compound #7 (representative disrupter of rhodopsin dimerization) and compound #1 (representative enhancer) on the sensitivity and kinetics of rod light responses, using ex vivo electroretinogram (ERG) analysis of isolated mouse retinas (Experimental procedures). This technique allows robust recordings from intact retinas and is well suited for quantitative investigation of mouse phototransduction ([48], [49], [50], [51], [52], [53]).
Ex vivo ERG recordings were conducted with isolated retinas of C57Bl/6J mice, as described ([41], [62], [63]). Mice were dark-adapted overnight and euthanized by CO2 asphyxiation, and whole retinas were dissected under dim red light. Before recordings, retinas were incubated for 5 h in Ames’ medium (Sigma-Aldrich) inside a light-tight box that was supplied with humidified 95% O2/5% CO2. For control retinas, 0.1% DMSO was added to the incubation medium, and for others, the incubation medium contained either 250 μM F2502-0030 (compound #1) or F5897-0190 (compound #7). These compounds were first dissolved in DMSO at 250 mM concentration, and 0.1% of this stock solution was added to the incubation medium (Ames’ medium). Stock solution was stored at −20 °C and used within a week. After incubation, retinas were placed on the ex vivo ERG specimen holder and perfused with Ames’ medium (saturated with 95% O2/5% CO2) at 1.5 ml/min at 35 °C. Ames’ medium was supplemented with 100 μM BaCl2 and 40 μM DL-AP4 (Tocris Bioscience) to isolate the photoreceptor component of the ERG signal. Responses were recorded to 5 ms flashes of light (630 nm) ranging from 276 to 308,534 photons μm^−2, corresponding to 1 to 1100 photons μm^−2 at 500 nm ([64]). Sensitivity of rod photoreceptors was determined in three ways: (1) sF = peak amplitude of dim flash response divided by flash energy (1 photon μm^−2); (2) SF = sF/Rmax, where Rmax is the maximal response amplitude measured at the plateau from a saturated rod response; (3) I1/2: flash energy required to elicit 50% of the Rmax determined by fitting a Naka-Rushton function to flash energy-amplitude data.

[2] = tested on: individual rod photoreceptors; assay: single-cell suction electrode recording from rod outer segments; type: cell-based, mouse (C57BL/6J); settings: suction electrode, 250 μM compound
Experimental: Because it is possible that reduction of Rmax by compound #1 is due to some effect(s) on the rod photoreceptor inner segment currents that are not directly related to phototransduction ([51], [52]), we conducted also single-cell suction electrode recordings from the ROS from samples that were incubated either in the control medium or in the medium containing enhancer compound #1. The results from single cell recordings were similar to those obtained using ex vivo ERG: Rmax and fractional sensitivity were decreased from 12 (±0.4) to 9 (±0.3) pA and from 3.0 (±0.5) to 1.8 (±0.1)% per photon μm^−2, respectively, by rhodopsin dimerization–enhancing hit #1 (Fig. 6, A–C). Like the ex vivo ERG recordings, light response kinetics was not affected by compound #1 in the single-cell recordings (Fig. 6D).
Suction electrode recordings from individual rod photoreceptors of dark-adapted C57BL/6J mice were conducted as described previously ([65]). Before recordings, isolated retinas were incubated in the control medium (Ames’ medium + 0.1% DMSO) or in the hit compound–containing medium (Ames’ medium +250 μM F2502-0030 (#1)) as described above for ex vivo ERG experiments. After incubation, one half of the retina was chopped with a razor blade and transferred into a chamber where it was perfused at 1 ml/min with Ames’ medium saturated with 95% O2/5% CO2 at 35 °C. Recordings were made from a single ROS, using borosilicate glass electrodes with ∼1.5-μm opening (resistance ∼2 MΩ at 35 °C). The pipette solution was Hepes buffered Ames’ medium composed of 0.88 g Ames’ powder (A1420, Sigma-Aldrich), 0.357 g Hepes (Sigma-Aldrich), and 58.44 mg NaCl in […] distilled and vacuum-filtered water. The pH was adjusted to 7.4 with NaOH. Light responses were recorded to flashes of light ranging from 8 to 700 photons μm^−2 at 500 nm. For analysis, data were low-pass filtered using an 8-pole Bessel filter with cut-off frequency at 30 Hz.

bovine rhodopsin = biological target: T1, bovine rhodopsin (Bos taurus, UniProt P02699); assay: rhodopsin Meta II decay assay (Trp265 intrinsic fluorescence); settings: 100 μM compound
T1 construct: The washed ROS with isotonic and hypotonic buffers was used as described above; from tissue; host or cells: bovine rod outer segments (ROS)
Experimental: However, oligomerization of isorhodopsin could affect the chromophore release from opsin. The chromophore release can be measured sensitively by the light-induced increase in intrinsic fluorescence of the Trp^265 residue that occurs upon release of the chromophore after illumination ([43]).
The washed ROS with isotonic and hypotonic buffers was used as described above. The solubilized rhodopsin at 1.05 mg/ml in 20 mM 1,3-bis(tris(hydroxymethyl)methylamino) propane, pH 6.9, 100 mM NaCl, and 1 mM LMNG buffer was incubated for 5 min at 20 °C with 0.7 μl of 100 mM stock solutions of the nine identified hit compounds (100 μM final concentration) in DMSO and centrifuged at 1000g for an additional 5 min. Next, photobleaching was carried out with a 150-W fiber light delivered through a 480 to 520 nm band pass filter (Chroma Technology) for 10 s. Samples were subjected to fluorescence measurements acquired through 150 s in triplicate. The results were analyzed with an L55 luminescence spectrophotometer (PerkinElmer) operating at excitation and emission wavelengths of 300 nm and 335 nm, respectively.

T1 sequence (P02699 whole entry): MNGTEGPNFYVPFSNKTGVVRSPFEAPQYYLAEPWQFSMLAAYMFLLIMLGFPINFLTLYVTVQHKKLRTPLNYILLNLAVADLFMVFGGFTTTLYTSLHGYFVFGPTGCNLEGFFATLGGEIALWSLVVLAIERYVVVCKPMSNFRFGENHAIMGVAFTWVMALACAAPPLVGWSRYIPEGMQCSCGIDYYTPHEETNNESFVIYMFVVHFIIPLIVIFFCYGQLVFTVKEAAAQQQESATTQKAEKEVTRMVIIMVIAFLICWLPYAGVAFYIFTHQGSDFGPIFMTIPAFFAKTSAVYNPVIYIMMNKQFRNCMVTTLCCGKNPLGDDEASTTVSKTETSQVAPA

SMILES: O=C(CSc1nnc(NC(=O)Cc2ccc(F)cc2)s1)NO [#1]
- effect on kinetics of rod light responses [1]: did not substantially affect the kinetics of responses
- Rmax ([1]; 5 h incubation, N = 4 retinas): 320 ± 80 ^a μV
- half-saturating I1/2 from best-fitting Michaelis–Menten equation to mean normalized amplitudes ([1]; Fig. 5F): 37 photons μm^−2
- SF (fractional sensitivity, sF/rmax) ([1]; N = 4): 5.0 ± 0.3 ^a %/photons∙μm^−2
- sF (absolute sensitivity) ([1]; N = 4): 13 ± 5 ^a μV/photons∙μm^−2
- I1/2 ([1]; from individual retinas, N = 4): 37 ± 2 ^a photons∙μm^−2
- tp ([1]; time-to-peak of dim flash (1 photon μm^−2), N = 4): 163 ± 12 ms
- light response kinetics (single-cell) [2]: not affected
- fractional sensitivity (single-cell) ([2]; control 3.0 (±0.5)): 1.8 (±0.1) % per photon μm^−2
- Rmax (single-cell) ([2]; control 12 (±0.4)): 9 (±0.3) pA
- light-induced increase in Trp265 intrinsic fluorescence vs DMSO-treated isorhodopsin (bovine rhodopsin): significantly quenched
- Meta II decay rate (slope of intrinsic fluorescence over 150 s) relative to DMSO control (bovine rhodopsin; bleached rhodopsin, p < 0.0001): statistically significant signal reduction

— publication PMC8665362, “Identification of small-molecule allosteric modulators that act as enhancers/disrupters of rhodopsin oligomerization” (The Journal of Biological Chemistry, 2021)
